Results on 6 compounds are retold here after patent US20100292334A1, “N-ACYLHYDRAZONE DERIVATIVES USEFUL AS MODULATORS OF NICOTINIC ACETYLCHOLINE RECEPTORS” (NeuroSearch A/S, priority 2007, published 2010).

For series [1], the target named is T1, wild-type nAChR α7 receptors (Homo sapiens, UniProt P36544).
T1 construct: expressed in transfected cells; host or cells: Xenopus laevis oocytes
Kind of series: Positive modulation of nAChR α7 receptors expressed in Xenopus laevis oocytes, two-electrode voltage clamp. Format: cell-based. As for the experimental part:
In this example the positive modulation of wild-type nAChR α7 receptors by Compound 3 (i.e. 4-Hydroxy-3-methoxy-benzoic acid [3-methyl-4-oxo-4H-naphthalen-(1E)-ylidene]-hydrazide; FIGS. 1A and 1B) was determined using nAChR α7 receptors heterologously expressed in Xenopus laevis oocytes.
The electrical current through the nAChR α7 channel was measured using conventional two-electrode voltage clamp and nAChR α7 currents were activated by applying pulses of agonist-containing solution onto the nAChR α7 expressing oocyte.
In brief, the oocytes were placed in a recording chambers and continuously super-fused with an Oocyte Ringer (OR) solution containing 90 mM NaCl, 2.5 mM KCl, 2.5 mM CaCl2, 1 mM MgCl2 and 5 mM HEPES (pH adjusted to 7.4). The oocytes were clamped at −60 mV and currents were induced by applying 20 s pulses of 100 μM acetylcholine dissolved in OR. The intervals between the acetylcholine applications were 5 minutes, during which the oocytes were washed with OR. The first three applications were control applications to insure a constant response level of 100 μM acetylcholine.
The positive modulation in the presence of Compound 3 was calculated as (test-control)/control*100% and the concentration response curve for this positive modulation was fitted to the sigmoidal logistic equation: I=Imax/(1+(EC50/[compound])n), where Imax represents the maximal modulation of the control response, EC50 is the concentration causing a half maximal response, and n is the slope coefficient.

The structures appear in SMILES notation.

T1 sequence (P36544 23-502): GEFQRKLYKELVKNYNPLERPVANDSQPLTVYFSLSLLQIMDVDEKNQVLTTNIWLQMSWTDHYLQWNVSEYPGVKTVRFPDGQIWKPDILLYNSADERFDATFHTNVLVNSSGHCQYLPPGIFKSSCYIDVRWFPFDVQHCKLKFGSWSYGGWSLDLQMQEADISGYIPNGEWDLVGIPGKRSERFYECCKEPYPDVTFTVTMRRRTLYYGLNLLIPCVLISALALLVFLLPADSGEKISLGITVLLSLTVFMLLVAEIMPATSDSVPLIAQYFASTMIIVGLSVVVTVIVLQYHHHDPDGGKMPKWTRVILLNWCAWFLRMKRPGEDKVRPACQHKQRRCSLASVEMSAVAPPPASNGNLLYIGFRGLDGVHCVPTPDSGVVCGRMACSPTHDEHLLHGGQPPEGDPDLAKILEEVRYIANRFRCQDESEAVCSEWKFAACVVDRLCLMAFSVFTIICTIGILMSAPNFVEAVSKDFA

The term melting point denotes the temperature of the solid-liquid transition. The compound `COc1ccc(C(=O)N/N=C2\C=C(C)C(=O)c3ccccc32)cc1` [Compound 2, 4-Methoxy-benzoic acid [3-methyl-4-oxo-4H-naphthalen-(1E)-ylidene]-hydrazide] yielded a melting point of 252.9 to 253.4 °C.
On to `CC1=C/C(=N\NC(=O)c2ccc3[nH]ccc3c2)c2ccccc2C1=O` [Compound 4, 1H-Indole-5-carboxylic acid [3-methyl-4-oxo-4H-naphthalen-(1E)-ylidene]-hydrazide], for which the melting point was 251.9 to 252.9 °C.
The compound `COc1cc(C(=O)N/N=C2\C=C(C)C(=O)c3ccccc32)ccc1O` [Compound 3, 4-Hydroxy-3-methoxy-benzoic acid [3-methyl-4-oxo-4H-naphthalen-(1E)-ylidene]-hydrazide] registered a melting point of 254.8 to 255.6 °C. For the same compound, the “effect on the acetylcholine-induced current amplitude” value in series [1] (0.01-31.6 μM applied 30 s before and during 100 μM acetylcholine) is recorded as “robust increase”. Moreover, the “Imax (maximal modulation of the control response)” value in series [1] (Xenopus laevis oocytes clamped at −60 mV, 100 μM acetylcholine, (test-control)/control*100%, fitted maximum) was found to be 98%. Besides, the EC50 in series [1] (Xenopus laevis oocytes clamped at −60 mV, currents induced by 100 μM acetylcholine, compound 0.01-31.6 μM applied 30 s before and during acetylcholine, read-out: EC50 (concentration causing a half maximal response) of positive modulation) was found to be 490 nM.
Compound `CC1=C/C(=N/NC(=O)c2ccc(C#N)cc2)c2ccccc2C1=O` [Compound 6, 4-Cyano-benzoic acid [3-methyl-4-oxo-4H-naphthalen-(1Z)-ylidene]-hydrazide] came in with a melting point of 290.3 to 292.7 °C.
On the same count and under the same terms, in the case of `CC(=O)Nc1ccc(C(=O)N/N=C2\C=C(C)C(=O)c3ccccc32)cc1` [Compound 5, N-{-4-[3-Methyl-4-oxo-4H-naphthalen-(1E)-ylidene-hydrazinocarbonyl]-phenyl}-acetamide] it was 280.5 to 280.8 °C.
`CC1=C/C(=N\NC(=O)c2ccc(O)cc2)c2ccccc2C1=O` [Compound 1, 4-Hydroxy-benzoic acid [3-methyl-4-oxo-4H-naphthalen-(1E)-ylidene]-hydrazide] registered a melting point of 274.3 to 275.7 °C.
